Counter-ions that a name gives are not always drawn. Like-named read-outs stand apart in the source and are kept apart here.

Holding throughout (experiment): AK assay 384-well format, Prestwick library screening
Test [1] relates to E. coli. It is filed as cell-based, Escherichia coli. The conditions noted are these: 50 μM final drug concentration; for fold induction at 50 µM: Escherichia coli, 3 h; for AK-based Prestwick Library Screening Results, E. coli (fold increase in extracellular AK activity): planktonic.
Test [2] concerns P. aeruginosa. It is filed as cell-based, Pseudomonas aeruginosa. The conditions noted are these: 50 μM final drug concentration; for fold induction at 50 µM: Pseudomonas aeruginosa, 3 h; for AK-based Prestwick Library Screening Results, P. aeruginosa (fold increase in extracellular AK activity): planktonic.
In test [3] the test system is E. faecium. It is filed as cell-based, Enterococcus faecium. To be noted: 50 μM final drug concentration; for fold induction at 50 µM: Enterococcus faecium, 3 h; for AK-based Prestwick Library Screening Results, E. faecium (fold increase in extracellular AK activity): planktonic.
Test [4] relates to S. aureus strain USA300-0114. Format: cell-based, Staphylococcus aureus. To be noted: 50 μM final drug concentration; for fold induction at 50 µM: Staphylococcus aureus, USA300, 3 h; for AK-based Prestwick Library Screening Results, S. aureus (fold increase in extracellular AK activity): planktonic.
Test [5] relates to K. pneumoniae. It is filed as cell-based, Klebsiella pneumoniae. To be noted: 50 μM final drug concentration; for fold induction at 50 µM: Klebsiella pneumoniae, 3 h; for AK-based Prestwick Library Screening Results, K. pneumoniae (fold increase in extracellular AK activity): planktonic.
The test system of test [6] is E. cloacae. It is filed as cell-based, Enterobacter cloacae. The conditions noted are these: 50 μM final drug concentration; for fold induction at 50 µM: Enterobacter cloacae, 3 h; for AK-based Prestwick Library Screening Results, E. cloacae (fold increase in extracellular AK activity): planktonic.
Test [7] relates to A. baumannii strain 98-37-09. It is filed as cell-based, Acinetobacter baumannii. The conditions noted are these: 50 μM final drug concentration; for fold induction at 50 µM: Acinetobacter baumannii, 983709, 3 h; for AK-based Prestwick Library Screening Results, A. baumannii (fold increase in extracellular AK activity): planktonic.
Where [8] appears, read: cutoff for positive-scoring molecules 3-fold increase, read-out: AK-based Prestwick Library Screening Results, E. coli (fold increase in extracellular AK activity).
[9] abbreviates: cutoff for positive-scoring molecules 3-fold increase, read-out: AK-based Prestwick Library Screening Results, P. aeruginosa (fold increase in extracellular AK activity).
The mark [10] stands for this setting: cutoff for positive-scoring molecules 3-fold increase, read-out: AK-based Prestwick Library Screening Results, E. faecium (fold increase in extracellular AK activity).
Where [11] appears, read: cutoff for positive-scoring molecules 3-fold increase, read-out: AK-based Prestwick Library Screening Results, S. aureus (fold increase in extracellular AK activity).
Setting [12] is: cutoff for positive-scoring molecules 3-fold increase, read-out: AK-based Prestwick Library Screening Results, K. pneumoniae (fold increase in extracellular AK activity).
Where [13] appears, read: cutoff for positive-scoring molecules 3-fold increase, read-out: AK-based Prestwick Library Screening Results, E. cloacae (fold increase in extracellular AK activity).
Setting [14] is: cutoff for positive-scoring molecules 3-fold increase, read-out: AK-based Prestwick Library Screening Results, A. baumannii (fold increase in extracellular AK activity).
[15] abbreviates: cutoff for positive 3-fold increase.
Where [16] appears, read: cutoff for positive-scoring molecules 3-fold increase.

As for `Clc1ccc(C(OCCN2CCCCC2)c2ccccc2)cc1` (centres unmarked) [Cloperastine hydrochloride], the fold induction at 50 µM in test [1] (setting [8]) stood at 1.2; in test [2] (setting [9]), 1.2; in test [3] (setting [10]), 1.1; in test [4] (setting [11]) it was 1.3; in test [5] (setting [12]), 1.2; in test [6] (setting [13]), 2. Further, in test [7] (setting [14]), the fold induction at 50 µM turned out to be 1.4.

As for `Cc1scc2c1N(C(=O)CN1CCN(C)CC1)c1ccccc1NC2=O` [Telenzepine dihydrochloride], the fold induction at 50 µM was determined as 1.5 in test [1] (planktonic E. coli, 384-well, cutoff for positive-scoring molecules 3-fold increase, read-out: AK-based Prestwick Library Screening Results: E. coli (increase in extracellular AK activity)); 1.2 in test [2] (planktonic P. aeruginosa, 384-well, cutoff for positive-scoring molecules 3-fold increase, read-out: AK-based Prestwick Library Screening Results: P. aeruginosa (increase in extracellular AK activity)); 1.1 in test [3] (planktonic E. faecium, 384-well, cutoff for positive-scoring molecules 3-fold increase, read-out: AK-based Prestwick Library Screening Results: E. faecium (increase in extracellular AK activity)); 1.3 in test [4] (planktonic S. aureus, 384-well, cutoff for positive-scoring molecules 3-fold increase, read-out: AK-based Prestwick Library Screening Results: S. aureus (increase in extracellular AK activity)); 1 in test [5] (planktonic K. pneumoniae, 384-well, cutoff for positive-scoring molecules 3-fold increase, read-out: AK-based Prestwick Library Screening Results: K. pneumoniae (increase in extracellular AK activity)); 1.4 in test [6] (planktonic E. cloacae, 384-well, cutoff for positive-scoring molecules 3-fold increase, read-out: AK-based Prestwick Library Screening Results: E. cloacae (increase in extracellular AK activity)). In test [7] (planktonic A. baumannii, 384-well, cutoff for positive-scoring molecules 3-fold increase, read-out: AK-based Prestwick Library Screening Results: A. baumannii (increase in extracellular AK activity)), the fold induction at 50 µM was found to be 1.6.

Consider Dihydroergotoxine mesylate, for which the “AK-based Prestwick Library Screening Results, E. coli (increase in extracellular AK activity)” value in test [1] (planktonic E. coli, cutoff for positive-scoring molecules 3-fold increase) is recorded as 0.6. Besides, in test [2] (planktonic P. aeruginosa, cutoff for positive-scoring molecules 3-fold increase), the “AK-based Prestwick Library Screening Results, P. aeruginosa (increase in extracellular AK activity)” value was 0.4. Further, the “AK-based Prestwick Library Screening Results, E. faecium (increase in extracellular AK activity)” value in test [3] (planktonic E. faecium, cutoff for positive-scoring molecules 3-fold increase) was determined as 0.8. Besides, the “AK-based Prestwick Library Screening Results, S. aureus (increase in extracellular AK activity)” value in test [4] (planktonic S. aureus, cutoff for positive-scoring molecules 3-fold increase) is 0.4. Further, in test [5] (planktonic K. pneumoniae, cutoff for positive-scoring molecules 3-fold increase), the “AK-based Prestwick Library Screening Results, K. pneumoniae (increase in extracellular AK activity)” value was determined as 0.5. The “AK-based Prestwick Library Screening Results, E. cloacae (increase in extracellular AK activity)” value in test [6] (planktonic E. cloacae, cutoff for positive-scoring molecules 3-fold increase) worked out at 0.6. In addition, the “AK-based Prestwick Library Screening Results, A. baumannii (increase in extracellular AK activity)” value in test [7] (planktonic A. baumannii, cutoff for positive-scoring molecules 3-fold increase) was found to be 0.5.

For the molecule `Nc1cc(-c2ccncc2)c[nH]c1=O` [Amrinone], the fold induction at 50 µM was 1.3 in test [1] (setting [8]); 1 in test [2] (setting [9]); 1 in test [3] (setting [10]); 1.1 in test [4] (setting [11]); 1.1 in test [5] (setting [12]); 44 in test [6] (setting [13]). Further, in test [7] (setting [14]), the fold induction at 50 µM came out at 1.2.

Take `C[N+](C)(C)CCCCCC[N+](C)(C)C.O.O.[Br-].[Br-]` [Hexamethonium dibromide dihydrate]: the “AK-based Prestwick Library Screening Results, E. coli (increase in extracellular AK activity)” value in test [1] (384-well format, […]) came to 0.9. Also, the “AK-based Prestwick Library Screening Results, P. aeruginosa (increase in extracellular AK activity)” value in test [2] (384-well format, […]) amounted to 0.8. For the same molecule, the “AK-based Prestwick Library Screening Results, E. faecium (increase in extracellular AK activity)” value in test [3] (384-well format, […]) came out at 0.9. In test [4] (384-well format, […]), the “AK-based Prestwick Library Screening Results, S. aureus (increase in extracellular AK activity)” value is on record as 0.7. In test [5] (384-well format, […]), the “AK-based Prestwick Library Screening Results, K. pneumoniae (increase in extracellular AK activity)” value is listed as 0.7. In test [6] (384-well format, […]), the “AK-based Prestwick Library Screening Results, E. cloacae (increase in extracellular AK activity)” value was determined as 1.2. In test [7] (384-well format, […]), the “AK-based Prestwick Library Screening Results, A. baumannii (increase in extracellular AK activity)” value was found to be 0.9.

For `CCN(CC)C(=S)SSC(=S)N(CC)CC` [Disulfiram], the fold induction at 50 µM amounted to 0.9 in test [1] (384-well format, […], read-out: AK-based Prestwick Library Screening Results, E. coli (increase in extracellular AK activity)); 0.6 in test [2] (384-well format, […], read-out: AK-based Prestwick Library Screening Results, P. aeruginosa (increase in extracellular AK activity)); 1 in test [3] (384-well format, […], read-out: AK-based Prestwick Library Screening Results, E. faecium (increase in extracellular AK activity)); 1.1 in test [4] (384-well format, […], read-out: AK-based Prestwick Library Screening Results, S. aureus (increase in extracellular AK activity)); 0.6 in test [5] (384-well format, […], read-out: AK-based Prestwick Library Screening Results, K. pneumoniae (increase in extracellular AK activity)); 0.7 in test [6] (384-well format, […], read-out: AK-based Prestwick Library Screening Results, E. cloacae (increase in extracellular AK activity)). Also, in test [7] (384-well format, […], read-out: AK-based Prestwick Library Screening Results, A. baumannii (increase in extracellular AK activity)), the fold induction at 50 µM amounted to 1.

As for Terbutaline hemisulfate, in test [1] (setting [15]), the “AK-based Prestwick Library Screening Results, E. coli (fold increase in extracellular AK activity)” value is on record as 1.2. Further, the “AK-based Prestwick Library Screening Results, P. aeruginosa (fold increase in extracellular AK activity)” value in test [2] (setting [15]) is recorded as 1.1. Moreover, the “AK-based Prestwick Library Screening Results, E. faecium (fold increase in extracellular AK activity)” value in test [3] (setting [15]) is given as 1.0. Besides, the “AK-based Prestwick Library Screening Results, S. aureus (fold increase in extracellular AK activity)” value in test [4] (setting [15]) stood at 1.1. In addition, in test [5] (setting [15]), the “AK-based Prestwick Library Screening Results, K. pneumoniae (fold increase in extracellular AK activity)” value worked out at 1.3. Also, in test [6] (setting [15]), the “AK-based Prestwick Library Screening Results, E. cloacae (fold increase in extracellular AK activity)” value came out at 1.4. Further, in test [7] (setting [15]), the “AK-based Prestwick Library Screening Results, A. baumannii (fold increase in extracellular AK activity)” value was 1.1.

On to Carbinoxamine maleate salt, for which the “AK-based Prestwick Library Screening Results, E. coli (fold increase in extracellular AK activity)” value in test [1] (setting [16]) is 0.7. For the same molecule, the “AK-based Prestwick Library Screening Results, P. aeruginosa (fold increase in extracellular AK activity)” value in test [2] (setting [16]) is given as 0.6. The “AK-based Prestwick Library Screening Results, E. faecium (fold increase in extracellular AK activity)” value in test [3] (setting [16]) is 0.8. In addition, the “AK-based Prestwick Library Screening Results, S. aureus (fold increase in extracellular AK activity)” value in test [4] (setting [16]) is given as 0.6. The “AK-based Prestwick Library Screening Results, K. pneumoniae (fold increase in extracellular AK activity)” value in test [5] (setting [16]) worked out at 0.6. Moreover, in test [6] (setting [16]), the “AK-based Prestwick Library Screening Results, E. cloacae (fold increase in extracellular AK activity)” value came out at 0.7. Further, the “AK-based Prestwick Library Screening Results, A. baumannii (fold increase in extracellular AK activity)” value in test [7] (setting [16]) came out at 0.7.

For the origin of these results see US10004701B2, “Methods and compositions for treating infection” (UNIVERSITY OF ROCHESTER, priority 2012, dated 2018).
